Our source for the IC50 values is patent publication US8614234B2, “Compounds as tyrosine kinase modulators” (Allergan, Inc., priority 2009, dated 2013).

As a reminder, the pIC50 is −log10 of the IC50, conventionally taken in molar units.

This assay concerns the target PDGFβ (Homo sapiens (Human), UniProt P09619). Briefly: PDGF stimulated Ca2+ signal in vitro (PDGFβ cellular, FLIPR, NHDF-Ad). Type of assay: cell-based. The settings on record: PDGF stimulation 10 ng/mL, intracellular calcium. (In general: A change in cytosolic calcium serves as a functional read-out for many receptors and channels.)

pIC50: −log10 of the molar value.

Chain of PDGFβ (P09619 33-1106): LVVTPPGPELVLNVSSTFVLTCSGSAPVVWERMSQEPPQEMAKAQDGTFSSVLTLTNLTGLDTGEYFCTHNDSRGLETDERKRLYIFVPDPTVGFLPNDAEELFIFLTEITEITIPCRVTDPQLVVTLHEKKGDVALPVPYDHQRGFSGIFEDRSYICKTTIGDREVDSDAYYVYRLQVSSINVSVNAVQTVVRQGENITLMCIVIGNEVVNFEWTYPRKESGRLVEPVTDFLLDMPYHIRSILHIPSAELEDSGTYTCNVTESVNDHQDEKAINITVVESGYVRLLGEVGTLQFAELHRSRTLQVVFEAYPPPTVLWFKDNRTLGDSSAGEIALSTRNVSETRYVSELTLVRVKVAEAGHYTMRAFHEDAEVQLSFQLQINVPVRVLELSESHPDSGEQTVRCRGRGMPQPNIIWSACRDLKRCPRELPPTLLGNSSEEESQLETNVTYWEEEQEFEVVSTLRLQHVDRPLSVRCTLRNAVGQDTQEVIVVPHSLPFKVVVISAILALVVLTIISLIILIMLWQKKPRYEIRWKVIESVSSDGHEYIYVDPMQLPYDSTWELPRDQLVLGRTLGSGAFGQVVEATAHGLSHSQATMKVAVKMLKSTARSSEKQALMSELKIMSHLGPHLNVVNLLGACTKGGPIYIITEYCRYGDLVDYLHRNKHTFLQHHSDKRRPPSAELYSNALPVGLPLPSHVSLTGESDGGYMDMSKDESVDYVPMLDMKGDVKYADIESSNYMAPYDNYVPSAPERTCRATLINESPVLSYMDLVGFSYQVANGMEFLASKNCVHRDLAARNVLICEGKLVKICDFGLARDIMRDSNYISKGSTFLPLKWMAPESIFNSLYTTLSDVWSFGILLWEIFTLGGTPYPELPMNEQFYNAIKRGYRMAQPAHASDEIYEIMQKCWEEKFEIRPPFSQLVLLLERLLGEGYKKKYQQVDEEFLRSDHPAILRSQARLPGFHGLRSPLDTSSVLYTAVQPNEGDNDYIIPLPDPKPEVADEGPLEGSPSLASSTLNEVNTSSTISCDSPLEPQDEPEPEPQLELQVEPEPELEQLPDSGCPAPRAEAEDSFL

Take `Cc1ccc(F)c(NC(=O)Nc2ccc(Oc3ccnc(-c4cc(C(=O)O)c[nH]4)c3)cc2F)c1` [Example 96, 5-{4-[3-fluoro-4-({[(2-fluoro-5-methylphenyl)amino]carbonyl}amino)phenoxy]pyridin-2-yl}-1H-pyrrole-3-carboxylic acid]: the pIC50 is 7.16.

In the case of `Cc1cccc(NC(=O)Nc2ccc(Oc3ccnc(-c4cc(C(=O)N5CCC[C@@H](O)C5)c[nH]4)c3)cc2)c1` (stereo in doubt) [Example 90, 1-{4-[(2-{4-[(3-hydroxypiperidin-1-yl)carbonyl]-1H-pyrrol-2-yl}pyridin-4-yl)oxy]phenyl}-3-(3-methylphenyl)urea], the pIC50 is 7.68. In the case of `Cc1ccoc1C(=O)Nc1cccc(Oc2ccnc(-c3cc(C(=O)N=S(C)(C)=O)c[nH]3)c2)c1` [Example 30, N-[dimethyl(oxido)-lambda˜4˜-sulfanylidene]-5-(4-{3-[(3-methyl-2-furoyl)amino]phenoxy}pyridin-2-yl)-1H-pyrrole-3-carboxamide] it was 7.03; in that of `Cc1ccc(F)c(NC(=O)Nc2ccc(Oc3ccnc(-c4cc(C(=O)N=S(C)(C)=O)c[nH]4)c3)cc2)c1` [Example 101, N-[dimethyl(oxido)-lambda˜4˜-sulfanylidene]-5-{4-[4-({[(2-fluoro-5-methylphenyl)amino]carbonyl}amino)phenoxy]pyridin-2-yl}-1H-pyrrole-3-carboxamide], 7.09. Take `Cc1ccc(F)c(NC(=O)c2cccc(Oc3ccnc(-c4cc(C(=O)O)c[nH]4)c3)c2)c1` [Example 19, 5-{4-[3-(2-Fluoro-5-methyl-phenylcarbamoyl)-phenoxy]-pyridin-2-yl}-1H-pyrrole-3-carboxylic acid]: the pIC50 is 6.87. As for `Cc1ccoc1C(=O)Nc1cccc(Oc2ccnc(-c3cc(C(=O)NO)c[nH]3)c2)c1` [Example 17, N-hydroxy-5-(4-{3-[(3-methyl-2-furoyl)amino]phenoxy}pyridin-2-yl)-1H-pyrrole-3-carboxamide], the pIC50 was 7.21. Next, `Cc1ccc(F)c(NC(=O)Nc2ccc(Oc3ccnc(-c4cc(C(=O)NCC(O)CO)c[nH]4)c3)cc2)c1` (stereo not shown) [Example 127, N-(2,3-dihydroxypropyl)-5-{4-[4-({[(2-fluoro-5-methylphenyl)amino]carbonyl}amino)phenoxy]pyridin-2-yl}-1H-pyrrole-3-carboxamide]: 7.04; `Cc1cccc(NC(=O)Nc2ccc(Oc3ccnc(-c4cc(C(=O)NCC(O)CO)c[nH]4)c3)cc2)c1` (stereo not shown) [Example 92, N-(2,3-dihydroxypropyl)-5-{4-[4-({[(3-methylphenyl)amino]carbonyl}amino)phenoxy]pyridin-2-yl}-1H-pyrrole-3-carboxamide]: 7.41; `Cc1ccoc1C(=O)Nc1cccc(Oc2ccnc(-c3cc(C(=O)NCC(O)CO)c[nH]3)c2)c1` (stereo not shown) [Example 15, N-(2,3-dihydroxypropyl)-5-(4-{3-[(3-methyl-2-furoyl)amino]phenoxy}pyridin-2-yl)-1H-pyrrole-3-carboxamide]: 7.14. `Cc1ccc(F)c(NC(=O)Nc2ccc(Oc3ccnc(-c4cc(C(=O)NO)c[nH]4)c3)cc2)c1` [Example 108, 5-{4-[4-({[(2-fluoro-5-methylphenyl)amino]carbonyl}amino)phenoxy]pyridin-2-yl}-N-hydroxy-1H-pyrrole-3-carboxamide]: the pIC50 was 7.37. `O=C(Nc1ccc(Oc2ccnc(-c3cc(C(=O)O)c[nH]3)c2)cc1)Nc1ccc(Cl)c(C(F)(F)F)c1` [Example 121, 5-(4-{4-[({[4-chloro-3-(trifluoromethyl)phenyl]amino}carbonyl)amino]phenoxy}pyridin-2-yl)-1H-pyrrole-3-carboxylic acid]: the pIC50 was 6.99.

On to `Cc1ccc(F)c(NC(=O)Nc2ccc(Oc3ccnc(-c4csc(C(=O)O)c4)c3)cc2)c1` [Example 123, 4-{4-[4-({[(2-fluoro-5-methylphenyl)amino]carbonyl}amino)phenoxy]pyridin-2-yl}thiophene-2-carboxylic acid], for which the pIC50 was 7.07. As to `CCNC(=O)c1c[nH]c(-c2cc(Oc3ccc(NC(=O)Nc4cccc(C)c4)cc3)ccn2)c1` [Example 93, N-ethyl-5-{4-[4-({[(3-methylphenyl)amino]carbonyl}amino)phenoxy]pyridin-2-yl}-1H-pyrrole-3-carboxamide], the pIC50 was 7.85. Next, `Cc1ccc(F)c(NC(=O)Nc2ccc(Oc3ccnc(-c4cc(C(=O)NCCCC(=O)NCC(O)CO)c[nH]4)c3)cc2)c1` (stereo not shown) [Example 54, N-{4-[(2,3-dihydroxypropyl)amino]-4-oxobutyl}-5-{4-[4-({[(2-fluoro-5-methylphenyl)amino]carbonyl}amino)phenoxy]pyridin-2-yl}-1H-pyrrole-3-carboxamide]: 6.72; `Cc1cccc(NC(=O)c2cccc(Oc3ccnc(-c4cc(C(=O)O)c[nH]4)c3)c2)c1` [Example 22, 5-[4-(3-m-Tolylcarbamoyl-phenoxy)-pyridin-2-yl]-1H-pyrrole-3-carboxylic acid]: 6.98. Next, `Cc1cccc(NC(=O)Nc2ccc(Oc3ccnc(-c4cc(C(=O)N5CC[C@@H](O)C5)c[nH]4)c3)cc2)c1` (stereo in doubt) [Example 91, 1-{4-[(2-{4-[(3-hydroxypyrrolidin-1-yl)carbonyl]-1H-pyrrol-2-yl}pyridin-4-yl)oxy]phenyl}-3-(3-methylphenyl)urea]: 7.42; `Cc1ccc(F)c(NC(=O)Nc2ccc(Oc3ccnc(-c4cc(C(=O)NCCCC(N)=O)c[nH]4)c3)cc2)c1` [Example 55, N-(4-amino-4-oxobutyl)-5-{4-[4-({[(2-fluoro-5-methylphenyl)amino]carbonyl}amino)phenoxy]pyridin-2-yl}-1H-pyrrole-3-carboxamide]: 7.59; `Cc1ccc(F)c(NC(=O)Nc2ccc(Oc3ccnc(-c4cc(C(=O)OCC(O)CO)c[nH]4)c3)cc2)c1` (stereo not shown) [Example 130, 2,3-dihydroxypropyl 5-{4-[4-({[(2-fluoro-5-methylphenyl)amino]carbonyl}amino)phenoxy]pyridin-2-yl}-1H-pyrrole-3-carboxylate]: 7.49. In the case of `COC(=O)[C@@H]1CCCN1CCNC(=O)c1c[nH]c(-c2cc(Oc3ccc(NC(=O)Nc4cc(C)ccc4F)cc3)ccn2)c1` [Example 102, methyl (2S)-1-(2-{[(5-{4-[4-({[(2-fluoro-5-methylphenyl)amino]carbonyl}amino)phenoxy]pyridin-2-yl}-1H-pyrrol-3-yl)carbonyl]amino}ethyl)pyrrolidine-2-carboxylate], the pIC50 is 8.10. Next, `Cc1ccoc1C(=O)Nc1cccc(Oc2ccnc(-c3cc(C(=O)OCC(O)CO)c[nH]3)c2)c1` (stereo not shown) [Example 21, 2,3-dihydroxypropyl 5-(4-{3-[(3-methyl-2-furoyl)amino]phenoxy}pyridin-2-yl)-1H-pyrrole-3-carboxylate]: 7.41. Next, `Cc1cccc(NC(=O)Nc2ccc(Oc3ccnc(-c4cc(C(=O)O)c[nH]4)c3)cc2)c1` [Example 115, 5-{4-[4-({[(3-methylphenyl)amino]carbonyl}amino)phenoxy]pyridin-2-yl}-1H-pyrrole-3-carboxylic acid]: 7.36.

Regarding `Cc1ccc(F)c(NC(=O)Nc2ccc(Oc3ccnc(-c4cc(C(=O)NCCCO)c[nH]4)c3)cc2)c1` [Example 110, 5-{4-[4-({[(2-fluoro-5-methylphenyl)amino]carbonyl}amino)phenoxy]pyridin-2-yl}-N-(3-hydroxypropyl)-1H-pyrrole-3-carboxamide], the pIC50 is 7.49.
